pEC50: −log10 of the molar value. Where a name gives a salt, the structure may show the parent alone. Read-outs that look alike come from different tables or passages of the source.
Biological target: T1, human muscarinic acetylcholine M1 receptor (Homo sapiens, UniProt P11229)
T1 construct: expressed in transfected cells; host or cells: CHO-K1
T1 sequence (P11229 1-460): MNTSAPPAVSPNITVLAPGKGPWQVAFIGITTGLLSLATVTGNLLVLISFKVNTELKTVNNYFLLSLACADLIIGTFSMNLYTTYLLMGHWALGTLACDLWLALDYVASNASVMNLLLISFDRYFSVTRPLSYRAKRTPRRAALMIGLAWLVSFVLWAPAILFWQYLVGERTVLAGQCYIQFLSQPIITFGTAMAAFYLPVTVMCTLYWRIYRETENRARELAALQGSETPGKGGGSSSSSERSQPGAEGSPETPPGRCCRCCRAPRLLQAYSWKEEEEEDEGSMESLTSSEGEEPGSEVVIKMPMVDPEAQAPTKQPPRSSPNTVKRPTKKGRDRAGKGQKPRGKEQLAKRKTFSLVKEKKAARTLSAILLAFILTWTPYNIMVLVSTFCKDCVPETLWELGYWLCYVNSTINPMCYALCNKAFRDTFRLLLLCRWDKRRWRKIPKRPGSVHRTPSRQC
Test: M1 PAM Assay (IP-One HTRF, IP1 accumulation in M1-CHO cells)
Type: cell-based
Description: Then diluted compounds (0.6% DMSO final concentration) are added together with EC20 of acetylcholine and incubated with the cells for 30 min at 37° C., 5% CO2.
CHO-K1 cells stably transfected with human muscarinic acetylcholine M1 receptor are cultured in Ham's F12 medium containing 10% heat inactivated fetal calf serum, 2 mM L-glutamine and Penicillin-Streptomycin grown in a humidified atmosphere at 5% CO2/95% air at 37° C.

[1] = CHO-K1 cells stably transfected with human M1 receptor, compounds added with EC20 of acetylcholine (25 nM), 30 min, intracellular IP1 by IP-One HTRF, read-out: M1 PAM EC50

| Compound | pEC50 [1] | pEC50 |
| --- | --- | --- |
| Cc1nc2c3c(nn2c(C)c1Cl)CN(C(=O)c1ccc(F)cc1OC1CC(N)C1)C3 (centres unmarked) [Example 61, [2-(3-Amino-cyclobutoxy)-4-fluoro-phenyl]-(6-chloro-5,7-dimethyl-1H,3H-2,4,7a,8-tetraaza-cyclopenta[a]inden-2-yl)-methanone, hydrochloride] | > 6.70 |  |
| Cc1nc2c3c(nn2c(C)c1Cl)CN(C(=O)c1ccc(F)cc1OC1CCN(CC(O)C(F)(F)F)CC1)C3 (centres unmarked) [Example 75, (6-Chloro-5,7-dimethyl-1H,3H-2,4,7a,8-tetraaza-cyclopenta[a]inden-2-yl)-{4-fluoro-2-[1-(3,3,3-trifluoro-2-hydroxy-propyl)-piperidin-4-yloxy]-phenyl}-methanone] | 6.00 to 6.70 |  |
| Cc1nc2c3c(nn2c(C)c1Cl)CN(C(=O)c1ccc(F)cc1OC1CN(CCF)C1)C3 [Example 46, (3-chloro-2,4-dimethyl-7H-pyrrolo[3′,4′:3,4]pyrazolo[1,5-a]pyrimidin-8(9H)-yl)(4-fluoro-2-((1-(2-fluoroethyl)azetidin-3-yl)oxy)phenyl)methanone] | 5.52 to 6.00 |  |
| COc1cncc(CCOc2cc(F)ccc2C(=O)N2Cc3nn4c(C)c(Cl)c(C)nc4c3C2)c1 [Example 72] | 5.52 to 6.00 |  |
| Cc1nc2c3c(nn2c(C)c1Cl)CN(C(=O)c1ccccc1O[C@H]1CN(C)C[C@@H]1O)C3 (racemic) [Example 13, (anti)-(6-Chloro-5,7-dimethyl-1H,3H-2,4,7a,8-tetraaza-cyclopenta[a]inden-2-yl)-[2-(4-hydroxy-1-methyl-pyrrolidin-3-yloxy)-phenyl]-methanone] | 5.52 to 6.00 |  |
| Cc1nc2c3c(nn2c(C)c1Cl)CN(C(=O)c1ccc(F)cc1OC1CC2C[C@H](O)C(C1)N2C)C3 (mixture of isomers) [Example 39, (3-chloro-2,4-dimethyl-7H-pyrrolo[3′,4′:3,4]pyrazolo[1,5-a]pyrimidin-8(9H)-yl)(4-fluoro-2-(((3-endo)-(6-exo)-6-hydroxy-8-methyl-8-azabicyclo[3.2.1]octan-3-yl)oxy)phenyl)methanone] |  | > 6.70 |
| O=C(c1ccc(F)cc1O[C@H]1C[C@H]2CC[C@@H](C1)N2CCF)N1Cc2nn3cc(Cl)cnc3c2C1 (single isomer, unassigned) [Example 51, (3-chloro-7H-pyrrolo[3′,4′:3,4]pyrazolo[1,5-a]pyrimidin-8(9H)-yl)(4-fluoro-2-{[(3-endo)-8-(2-fluoroethyl)-8-azabicyclo[3.2.1]oct-3-yl]oxy}phenyl)methanone] |  | > 6.70 |
| Cc1nc2c3c(nn2c(C)c1Cl)CN(C(=O)c1ccc(F)cc1OC[C@H]1C[C@@H](F)CN1)C3 [Example 60, (6-Chloro-5,7-dimethyl-1H,3H-2,4,7a,8-tetraaza-cyclopenta[a]inden-2-yl)-[4-fluoro-2-((2R,4R)-4-fluoro-pyrrolidin-2-ylmethoxy)-phenyl]-methanone] | > 6.70 |  |
| Cc1nc2c3c(nn2c(C)c1Cl)CN(C(=O)c1ccc(F)cc1OCC1(N)CC1)C3 [Example 68, (2-((1-aminocyclopropyl)methoxy)-4-fluorophenyl)(3-chloro-2,4-dimethyl-7H-pyrrolo[3′,4′:3,4]pyrazolo[1,5-a]pyrimidin-8(9H)-yl)methanone] | 5.52 to 6.00 |  |
| Cc1ccc(CCOc2cc(F)ccc2C(=O)N2Cc3nn4c(C)c(Cl)c(C)nc4c3C2)cn1 [Example 42, (3-chloro-2,4-dimethyl-7H-pyrrolo[3′,4′:3,4]pyrazolo[1,5-a]pyrimidin-8(9H)-yl)(4-fluoro-2-(2-(6-methylpyridin-3-yl)ethoxy)phenyl)methanone] | 6.00 to 6.70 |  |
| Cc1nc2c3c(nn2c(C)c1Cl)CN(C(=O)c1ccc(Br)cc1OCCN(C)C)C3 [Example 31, (4-bromo-2-(2-(dimethylamino)ethoxy)phenyl)(3-chloro-2,4-dimethyl-7H-pyrrolo[3′,4′:3,4]pyrazolo[1,5-a]pyrimidin-8(9H)-yl)methanone] | 6.00 to 6.70 |  |
| CN1[C@@H]2CC[C@H]1C[C@@H](Oc1cc(F)ccc1C(=O)N1Cc3nn4cc(Cl)cnc4c3C1)C2 [Example 53, (3-chloro-7H-pyrrolo[3′,4′:3,4]pyrazolo[1,5-a]pyrimidin-8(9H)-yl)(4-fluoro-2-{[(3-endo)-8-methyl-8-azabicyclo[3.2.1]oct-3-yl]oxy}phenyl)methanone] |  | > 6.70 |
| CCCN1[C@@H]2CC[C@H]1C[C@@H](Oc1cc(F)ccc1C(=O)N1Cc3nn4cc(Cl)cnc4c3C1)C2 [Example 64, (3-chloro-7H-pyrrolo[3′,4′:3,4]pyrazolo[1,5-a]pyrimidin-8(9H)-yl)(4-fluoro-2-{[(3-endo)-8-propyl-8-azabicyclo[3.2.1]oct-3-yl]oxy}phenyl)methanone] |  | > 6.70 |
| Cc1nc2c3c(nn2c(C)c1Cl)CN(C(=O)c1ccc(F)cc1O[C@H]1CC[C@@H](O)CC1)C3 (single isomer, unassigned) [Example 49, (syn)-(6-Chloro-5,7-dimethyl-1H,3H-2,4,7a,8-tetraaza-cvclopenta[a]inden-2-yl)-[4-fluoro-2-(4-hydroxy-cyclohexyloxy)-phenyl]-methanone] | 6.00 to 6.70 |  |

Second part, led by results:

| pEC50 [1] | Compound | pEC50 |
| --- | --- | --- |
| 5.52 to 6.00 | (syn)-(6-Chloro-5,7-dimethyl-1H,3H-2,4,7a,8-tetraaza-cyclopenta[a]inden-2-yl)-[4-fluoro-2-(4-fluoro-cyclohexyloxy)-phenyl]-methanone or (anti)-(6-Chloro-5,7-dimethyl-1H,3H-2,4,7a,8-tetraaza-cyclopenta[a]inden-2-yl)-[4-fluoro-2-(4-fluoro-cyclohexyloxy)-phenyl]-methanone [Example 54] |  |
| 5.52 to 6.00 | Cc1nc2c3c(nn2c(C)c1Cl)CN(C(=O)c1ccccc1C(C)N1CCN(C)CC1)C3 (centres unmarked) [Example 7, (3-chloro-2,4-dimethyl-7H-pyrrolo[3′,4′:3,4]pyrazolo[1,5-a]pyrimidin-8(9H)-yl)(2-(1-(4-methylpiperazin-1-yl)ethyl)phenyl)methanone] |  |
| 6.00 to 6.70 | Cc1nc2c3c(nn2c(C)c1Cl)CN(C(=O)c1ccccc1O[C@H]1CNC[C@@H]1O)C3 (racemic) [Example 4, (anti)-(6-Chloro-5,7-dimethyl-1H,3H-2,4,7a,8-tetraaza-cyclopenta[a]inden-2-yl)-[2-(4-hydroxy-pyrrolidin-3-yloxy)-phenyl]-methanone] |  |
| 6.00 to 6.70 | Cc1nc2c3c(nn2c(C)c1Cl)CN(C(=O)c1ccc(F)cc1O[C@@H]1CCNC1=O)C3 [Example 11, (R)-3-(2-(3-chloro-2,4-dimethyl-8,9-dihydro-7H-pyrrolo[3′,4′:3,4]pyrazolo[1,5-a]pyrimidine-8-carbonyl)-5-fluorophenoxy)pyrrolidin-2-one] |  |
| 5.52 to 6.00 | Cc1nc2c3c(nn2c(C)c1Cl)CN(C(=O)c1ccc(F)cc1OCCN1CCOCC1)C3 [Example 15, (3-Chloro-2,4-dimethyl-7H-pyrrolo[3′,4′:3,4]pyrazolo[1,5-a]pyrimidin-8(9H)-yl)(4-fluoro-2-(2-morpholinoethoxy)phenyl)methanone] |  |
| > 6.70 | CCN1CCC(Oc2cc(F)ccc2C(=O)N2Cc3nn4c(C)c(Cl)c(C)nc4c3C2)CC1 [Example 76, (6-Chloro-5,7-dimethyl-1H,3H-2,4,7a,8-tetraaza-cyclopenta[a]inden-2-yl)-[2-(1-ethyl-piperidin-4-yloxy)-4-fluoro-phenyl]-methanone] |  |
| 6.00 to 6.70 | Cc1nc2c3c(nn2c(C)c1Cl)CN(C(=O)c1ccc(C#N)cc1OCCN(C)C)C3 [Example 14, 4-(3-chloro-2,4-dimethyl-8,9-dihydro-7H -pyrrolo[3′,4′:3,4]pyrazolo[1,5-a]pyrimidine-8-carbonyl)-3-(2-(dimethylamino)ethoxy)benzonitrile] |  |
| > 6.70 | CCCN1CCC(Oc2cc(F)ccc2C(=O)N2Cc3nn4c(C)c(Cl)c(C)nc4c3C2)CC1 [Example 77, (6-Chloro-5,7-dimethyl-1H,3H-2,4,7a,8-tetraaza-cyclopenta[a]inden-2-yl)-[4-fluoro-2-(1-propyl-piperidin-4-yloxy)-phenyl]-methanone] |  |
| 6.00 to 6.70 | O=C(c1ccc(F)cc1OC1CCN(CCO)CC1)N1Cc2nn3cc(Cl)cnc3c2C1 [Example 35, (3-chloro-7H-pyrrolo[3′,4′:3,4]pyrazolo[1,5-a]pyrimidin-8(9H)-yl)(4-fluoro-2-((1-(2-hydroxyethyl)piperidin-4-yl)oxy)phenyl)methanone] |  |
| 6.00 to 6.70 | O=C(c1ccc(F)cc1OC1CCNCC1)N1Cc2nn3cc(Cl)cnc3c2C1 [Example 33, (3-chloro-7H-pyrrolo[3′,4′:3,4]pyrazolo[1,5-a]pyrimidin-8(9H)-yl)(4-fluoro-2-(piperidin-4-yloxy)phenyl)methanone hydrochloride] |  |
| 5.52 to 6.00 | Cc1nc2c3c(nn2c(C)c1Cl)C(CO)N(C(=O)c1ccccc1OC1CCN(C)CC1)C3 (centres unmarked) [Example 23, (6-Chloro-1-hydroxymethyl-5,7-dimethyl-1H,3H-2,4,7a,8-tetraaza-cyclopenta[a]inden-2yl)-[2-(1-methyl-piperidin-4-yloxy)-phenyl]-methanone] |  |
| 6.00 to 6.70 | Cc1nc2c3c(nn2c(C)c1Cl)CN(C(=O)c1ccc(F)cc1OC1CN(CCO)C1)C3 [Example 30, (3-chloro-2,4-dimethyl-7H-pyrrolo[3′,4′:3,4]pyrazolo[1,5-a]pyrimidin-8(9H)-yl)(4-fluoro-2-((1-(2-hydroxyethyl)azetidin-3-yl)oxy)phenyl)methanone] |  |
